Test results as given in PubChem BioAssay (NCI).
Values joined by “and” are separate entries in the source; they are usually repeats but may differ in a detail not shown here. Identical values can stand only once.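 Cells were grown in 96-well plates and exposed to each compound for 48 hours at five concentrations; endpoints were interpolated linearly between bracketing concentrations, or set to the highest concentration if not reached. Here, GI50 denotes the concentration required for 50% inhibition of growth. Definition used: TGI = concentration required for complete inhibition of growth.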

What was measured:
Assay in all cases: NCI-60 cell line screen, 48 h
HS 578T breast = test system: HS 578T breast
LOX IMVI melanoma = test system: LOX IMVI melanoma
NCI-H226 lung = test system: NCI-H226 lung
NCI/ADR-RES ovarian = test system: NCI/ADR-RES ovarian
OVCAR-5 ovarian = test system: OVCAR-5 ovarian
SK-MEL-28 melanoma = test system: SK-MEL-28 melanoma
SK-MEL-5 melanoma = test system: SK-MEL-5 melanoma
SW-620 colon = test system: SW-620 colon
TK-10 renal = test system: TK-10 renal
EKVX NSCLC = test system: EKVX NSCLC

SMILES | GI50 (HS 578T breast) [µM] | TGI (HS 578T breast) [µM] | GI50 (LOX IMVI melanoma) | TGI (LOX IMVI melanoma) | GI50 (NCI-H226 lung) [µM] | TGI (NCI-H226 lung) | GI50 (NCI/ADR-RES ovarian) [µM] | TGI (NCI/ADR-RES ovarian) [µM] | GI50 (OVCAR-5 ovarian) [µM] | TGI (OVCAR-5 ovarian) [µM] | GI50 (SK-MEL-28 melanoma) [µM] | TGI (SK-MEL-28 melanoma) | GI50 (SK-MEL-5 melanoma) [µM] | TGI (SK-MEL-5 melanoma) | GI50 (SW-620 colon) [µM] | TGI (SW-620 colon) | GI50 (TK-10 renal) [µM] | TGI (TK-10 renal) | GI50 (EKVX NSCLC) | TGI (EKVX NSCLC)
COc1cc(-c2cc(/C=C/C(=O)c3ccc(F)c(F)c3)[nH]n2)cc(OC)c1OC | 3.58 | 36.8 | 3.18 µM | 12.2 µM | 3.72 | 15.8 µM | 3.46 | 50.5 | 4.49 | 33.8 | 5.31 | 28.2 µM | 2.27 | 6.41 µM | 3.42 | > 100 µM | 2.29 | 7.41 µM | – | –
COc1cc(C2c3cc4c(cc3[C@@H](NCCN(C)C)C3COC(=O)[C@H]23)OCO4)cc(OC)c1O (some centres undefined) | – | – | 0.0366 µM and 0.119 µM | 0.69 µM and 1.29 µM | – | 0.0481 µM and 0.152 µM | – | – | – | – | – | 2.14 µM and 3.38 µM | – | 1.09 µM and 1.55 µM | – | 3.51 µM and 3.71 µM | – | 3.58 µM and 5.2 µM | 1.56 µM and 3.29 µM | 5.08 µM and 11 µM
CC(C)/C=C1\CCC(CN(C)C)C1=O (centres undefined) | – | – | – | 11.9 µM | – | 83 µM | – | 10.6 | – | 15.3 | – | 5.07 µM | – | 12.4 µM | – | 1.55 µM | – | 5.96 µM | – | 15.5 µM
N#CCn1c(=O)c(Oc2ccc(F)cc2F)cc2cnc(NC3CCOCC3)nc21 | > 25 | > 25 | > 25 µM | > 25 µM | > 25 | > 25 µM | > 25 | > 25 | > 25 | > 25 | > 25 | > 25 µM | > 25 | > 25 µM | > 25 | > 25 µM | > 25 | > 25 µM | – | –
CCOc1ccccc1N=Nc1ccc2oc(=O)c(C(C)=O)cc2c1 | – | – | – | > 100 µM | – | – | – | – | – | > 100 | – | > 100 µM | – | > 100 µM | – | > 100 µM | – | > 100 µM | – | > 100 µM
Cc1ccc(C(=O)CC2(O)C(=O)Nc3c(C)cc(Cl)cc32)cc1 (centres undefined) | – | – | – | > 100 µM | – | > 100 µM | – | – | – | > 100 | – | > 100 µM | – | > 100 µM | – | > 100 µM | – | > 100 µM | – | > 100 µM
O=[N+]([O-])c1ccc(C2=Nc3ccccc3S(=O)C(c3ccccc3)C2)cc1 (centres undefined) | – | – | – | 29.3 µM | – | 49.4 µM | – | – | – | 92.8 | – | 48.1 µM | – | – | – | 52.8 µM | – | 82.9 µM | – | 45.1 µM
Nc1ccc2n[se]nc2c1 | – | – | – | > 100 µM | – | – | – | – | – | > 100 | – | > 100 µM | – | > 100 µM | – | > 100 µM | – | > 100 µM | – | > 100 µM
CN(C)CCNC(=O)c1cccc2c1nc(-c1ccc(F)cc1)c1ccccc12 | – | – | – | 5.36 µM | – | 9.31 µM | – | – | – | 16.7 | – | 20.3 µM | – | 11 µM | – | 14.8 µM | – | 16.6 µM | – | 21.7 µM
CC(=O)Nc1ccc(C(=O)CCl)cc1 | 17.7 | 80.5 | 1.93 µM | 4.17 µM | 16.9 | 42.6 µM | 14.7 | 43.5 | 12.2 | 26.1 | 2.49 | 7.54 µM | 15.9 | 31 µM | 1.73 | 3.38 µM | 2.82 | 7.71 µM | – | –
